The source of these data is ChEMBL document CHEMBL4818986, “Recent progress on HDAC inhibitors with dual targeting capabilities for cancer treatment” (Eur J Med Chem, 2020).

A word on the IC50: it is the point on the concentration scale where inhibition reaches its midpoint.

In one experiment the test system is 4T1. The experiment is described as follows: Antiproliferative activity against mouse 4T1 cells by EdU alexa fluor high-throughput imaging method. In kind it is functional, cell-based.
The next experiment concerns THP-1. Put plainly: Antiproliferative activity against human THP1 incubated for 72 hrs by Trypan Blue reagent based assay. In kind it is functional, cell-based. The note with it: THP-1, 72 h.
The target in experiment [1] is T1, Histone-lysine N-methyltransferase EHMT2 (Homo sapiens, UniProt Q96KQ7).
T1 sequence (Q96KQ7 whole entry): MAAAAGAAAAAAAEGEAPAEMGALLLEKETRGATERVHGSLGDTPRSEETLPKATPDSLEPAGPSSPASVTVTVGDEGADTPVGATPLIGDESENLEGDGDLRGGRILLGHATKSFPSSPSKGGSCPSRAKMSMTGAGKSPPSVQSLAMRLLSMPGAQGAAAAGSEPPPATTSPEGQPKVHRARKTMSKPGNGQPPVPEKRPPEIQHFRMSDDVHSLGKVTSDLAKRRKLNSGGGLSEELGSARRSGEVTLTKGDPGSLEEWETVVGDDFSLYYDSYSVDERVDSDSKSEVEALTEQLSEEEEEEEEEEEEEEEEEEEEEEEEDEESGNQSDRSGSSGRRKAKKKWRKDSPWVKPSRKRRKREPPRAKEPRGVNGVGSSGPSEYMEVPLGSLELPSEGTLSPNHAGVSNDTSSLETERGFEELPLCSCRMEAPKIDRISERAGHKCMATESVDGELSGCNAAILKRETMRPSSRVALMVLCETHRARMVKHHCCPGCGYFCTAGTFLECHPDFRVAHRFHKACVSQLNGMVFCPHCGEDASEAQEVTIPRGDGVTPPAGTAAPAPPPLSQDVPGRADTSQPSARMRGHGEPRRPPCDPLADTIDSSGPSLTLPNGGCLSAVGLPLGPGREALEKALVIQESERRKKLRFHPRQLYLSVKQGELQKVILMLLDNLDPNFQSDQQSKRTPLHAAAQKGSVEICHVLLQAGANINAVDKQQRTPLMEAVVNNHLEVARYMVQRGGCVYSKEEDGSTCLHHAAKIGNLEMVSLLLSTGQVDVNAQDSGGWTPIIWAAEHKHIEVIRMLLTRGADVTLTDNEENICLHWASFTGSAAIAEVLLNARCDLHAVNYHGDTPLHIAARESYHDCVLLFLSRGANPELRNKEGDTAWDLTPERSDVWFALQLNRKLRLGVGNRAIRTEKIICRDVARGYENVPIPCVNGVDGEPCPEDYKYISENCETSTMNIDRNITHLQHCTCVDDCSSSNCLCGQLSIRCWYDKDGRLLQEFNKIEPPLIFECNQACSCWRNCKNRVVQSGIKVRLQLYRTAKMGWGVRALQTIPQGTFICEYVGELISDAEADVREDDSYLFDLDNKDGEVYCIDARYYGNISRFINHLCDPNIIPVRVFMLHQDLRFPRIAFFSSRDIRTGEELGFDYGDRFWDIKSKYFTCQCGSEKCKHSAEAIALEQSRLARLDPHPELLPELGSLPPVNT
Put plainly: Inhibition of G9a in human MDA-MB-231 cells assessed as effect on H3K9Me2 levels incubated for 48 hrs by immunofluorescence in-cell western assay. In kind it is cell-based.

In experiment [2] the target is Histone deacetylase. The experiment is described as follows: Inhibition of HDAC in human K562 cells using Boc-K(Ac)-AMC as substrate preincubated for 3 hrs followed by substrate addition and measured after 3 hrs by fluorescence method. In kind it is cell-based.
Another experiment concerns CAPAN-1. The experiment is described as follows: Antiproliferative activity against human CAPAN 1 cells incubated for 72 hrs by CCK8 assay. In kind it is functional, cell-based. The note with it: CAPAN-1, 72 h.
Experiment [3] concerns the target T2, Histone deacetylase 1 (Homo sapiens, UniProt Q13547). The experiment is described as follows: Inhibition of human HDAC1 expressed in baculovirus expression system by fluorescence method.
The subject of the next experiment is U-87 MG. Put plainly: Antiproliferative activity against human U87 cells assessed as reduction in cell viability incubated for 72 hrs by MTT assay. In kind it is functional, cell-based, U-87MG ATCC.
Another experiment concerns T98G. The experiment is described as follows: Antiproliferative activity against human T98G cells assessed as reduction in cell viability incubated for 72 hrs by MTT assay. In kind it is functional, cell-based. For orientation: Tetrazolium dyes change colour on reduction, which living cells bring about.
The next experiment relates to U-251. Put plainly: Antiproliferative activity against human U251 cells assessed as reduction in cell viability incubated for 72 hrs by MTT assay. In kind it is functional, cell-based. The note with it: U-251, 72 h.
Experiment [4] deals with T3, Epidermal growth factor receptor (Homo sapiens, UniProt P00533). Put plainly: Inhibition of EGFR (unknown origin).
T3 sequence (P00533 whole entry): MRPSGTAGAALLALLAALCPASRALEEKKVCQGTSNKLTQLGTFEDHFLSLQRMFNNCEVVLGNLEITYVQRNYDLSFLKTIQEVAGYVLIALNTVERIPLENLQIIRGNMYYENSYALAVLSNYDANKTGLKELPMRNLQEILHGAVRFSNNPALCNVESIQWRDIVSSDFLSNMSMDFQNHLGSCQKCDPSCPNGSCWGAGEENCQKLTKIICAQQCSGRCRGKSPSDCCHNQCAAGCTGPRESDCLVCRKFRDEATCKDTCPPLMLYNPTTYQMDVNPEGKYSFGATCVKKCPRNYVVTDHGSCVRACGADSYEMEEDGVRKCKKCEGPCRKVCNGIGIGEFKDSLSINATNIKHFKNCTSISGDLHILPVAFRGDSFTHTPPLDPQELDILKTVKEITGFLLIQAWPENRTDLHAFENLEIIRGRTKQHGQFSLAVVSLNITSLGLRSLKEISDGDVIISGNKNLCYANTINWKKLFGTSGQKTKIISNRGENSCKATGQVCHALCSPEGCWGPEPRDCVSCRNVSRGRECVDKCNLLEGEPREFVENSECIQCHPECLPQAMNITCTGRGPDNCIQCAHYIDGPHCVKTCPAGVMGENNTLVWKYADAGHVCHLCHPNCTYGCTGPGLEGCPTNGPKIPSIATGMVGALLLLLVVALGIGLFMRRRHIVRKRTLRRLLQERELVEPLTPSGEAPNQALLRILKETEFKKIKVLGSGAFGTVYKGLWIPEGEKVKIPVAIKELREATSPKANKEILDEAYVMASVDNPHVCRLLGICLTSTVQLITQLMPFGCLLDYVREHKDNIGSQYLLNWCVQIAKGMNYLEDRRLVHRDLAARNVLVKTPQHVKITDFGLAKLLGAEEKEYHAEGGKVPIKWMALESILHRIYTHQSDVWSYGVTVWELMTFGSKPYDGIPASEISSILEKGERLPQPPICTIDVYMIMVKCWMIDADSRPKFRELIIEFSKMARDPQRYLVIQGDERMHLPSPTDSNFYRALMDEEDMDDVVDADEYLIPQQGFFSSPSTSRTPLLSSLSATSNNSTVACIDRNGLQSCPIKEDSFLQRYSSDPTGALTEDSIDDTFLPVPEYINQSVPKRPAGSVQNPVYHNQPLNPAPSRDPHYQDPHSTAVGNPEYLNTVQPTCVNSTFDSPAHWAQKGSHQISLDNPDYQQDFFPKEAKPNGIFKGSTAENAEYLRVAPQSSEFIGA
In experiment [5] the target is T2, Histone deacetylase 1. The experiment is described as follows: Inhibition of HDAC1 (unknown origin).
In experiment [6] the test system is A549. The experiment is described as follows: Antiproliferative activity against human A549 cells. In kind it is functional, cell-based.
Experiment [7] concerns the target T4, Protein deacetylase HDAC6 (Homo sapiens, UniProt Q9UBN7).
T4 sequence (Q9UBN7 whole entry): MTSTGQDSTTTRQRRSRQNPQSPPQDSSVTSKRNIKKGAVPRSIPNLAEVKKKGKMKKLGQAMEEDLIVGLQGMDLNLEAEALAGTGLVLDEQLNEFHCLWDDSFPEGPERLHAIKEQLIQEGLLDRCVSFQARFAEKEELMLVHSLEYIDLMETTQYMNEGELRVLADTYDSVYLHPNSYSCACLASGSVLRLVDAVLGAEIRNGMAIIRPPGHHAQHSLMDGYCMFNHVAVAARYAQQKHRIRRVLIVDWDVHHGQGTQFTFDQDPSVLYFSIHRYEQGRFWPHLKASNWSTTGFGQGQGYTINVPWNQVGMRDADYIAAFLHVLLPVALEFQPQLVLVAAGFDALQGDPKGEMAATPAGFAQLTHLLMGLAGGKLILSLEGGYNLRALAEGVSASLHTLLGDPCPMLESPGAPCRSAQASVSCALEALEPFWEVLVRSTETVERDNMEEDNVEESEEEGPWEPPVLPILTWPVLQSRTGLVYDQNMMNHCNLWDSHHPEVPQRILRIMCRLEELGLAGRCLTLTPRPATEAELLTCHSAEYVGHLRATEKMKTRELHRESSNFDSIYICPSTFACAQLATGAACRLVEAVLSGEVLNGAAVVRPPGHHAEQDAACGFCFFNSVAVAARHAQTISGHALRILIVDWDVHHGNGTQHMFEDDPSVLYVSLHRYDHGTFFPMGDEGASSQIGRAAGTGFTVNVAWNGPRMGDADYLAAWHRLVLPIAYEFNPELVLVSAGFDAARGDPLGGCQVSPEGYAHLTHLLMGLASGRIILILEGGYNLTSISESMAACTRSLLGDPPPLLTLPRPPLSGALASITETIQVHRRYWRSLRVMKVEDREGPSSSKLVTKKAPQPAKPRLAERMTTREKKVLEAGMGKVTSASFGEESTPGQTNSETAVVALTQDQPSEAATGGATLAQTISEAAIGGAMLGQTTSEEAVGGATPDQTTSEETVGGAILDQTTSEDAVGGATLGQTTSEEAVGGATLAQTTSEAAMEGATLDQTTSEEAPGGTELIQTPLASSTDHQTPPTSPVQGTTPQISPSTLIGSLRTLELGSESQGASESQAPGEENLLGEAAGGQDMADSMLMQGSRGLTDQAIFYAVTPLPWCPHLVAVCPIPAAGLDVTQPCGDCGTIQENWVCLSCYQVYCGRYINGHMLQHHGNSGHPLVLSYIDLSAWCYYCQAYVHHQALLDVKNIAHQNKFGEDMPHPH
The experiment is described as follows: Inhibition of HDAC6 (unknown origin).

The target of experiment [8] is Cyclin-dependent kinase 4 (Homo sapiens, UniProt P11802). The experiment is described as follows: Inhibition of CDK4 (unknown origin).
Cyclin-dependent kinase 4, sequence (P11802 whole entry): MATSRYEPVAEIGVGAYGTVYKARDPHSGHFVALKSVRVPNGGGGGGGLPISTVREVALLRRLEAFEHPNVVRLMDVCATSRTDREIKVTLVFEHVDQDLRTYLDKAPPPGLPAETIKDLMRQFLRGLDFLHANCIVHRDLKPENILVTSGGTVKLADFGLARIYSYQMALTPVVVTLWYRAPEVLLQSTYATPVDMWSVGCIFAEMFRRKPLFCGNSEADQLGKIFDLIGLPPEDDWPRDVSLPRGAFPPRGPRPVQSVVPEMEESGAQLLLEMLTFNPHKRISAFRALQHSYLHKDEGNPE
Experiment [9] can be described thus: Inhibition of human SCC-25 cell metabolism incubated for 72 hrs by CCK8 assay. In kind it is functional. The following applies: SCC-25, 72 h.
The subject of a further experiment is KG-1. The experiment is described as follows: Antiproliferative activity against human KG-1 cells incubated for 72 hrs by MTT assay. In kind it is functional, cell-based. The note with it: KG-1, 72 h.
Experiment [10] addresses Histone deacetylase. The experiment is described as follows: Inhibition of HDAC in human HeLa cell nuclear extracts using Boc-Lys (acetyl)-AMC as substrate preincubated for 5 mins followed by substrate addition and measured after 30 mins by fluorescence based assay.
Experiment [11] has as its target T3, Epidermal growth factor receptor. Put plainly: Inhibition of EGFR (unknown origin) incubated for 40 mins by kinase-glo plus luminescence assay.
For a further experiment, the system named is MDA-MB-468. The experiment is described as follows: Antiproliferative activity against human MDA-MB-468 cells incubated for 72 hrs by MTT assay. In kind it is functional, cell-based. The following applies: MDA-MB-468, 72 h.
Experiment [12] deals with A549. Put plainly: Antiproliferative activity against human A549 cells incubated for 72 hrs by MTT assay. In kind it is functional, cell-based. The following applies: A549, 72 h.
The target in experiment [13] is DNA (cytosine-5)-methyltransferase 1 (Homo sapiens, UniProt P26358). Put plainly: Inhibition of DNMT1 (unknown origin) using poly(dI-dC)-poly(dI-dC as substrate in presence of [3H-SAM] preincubated for 15 mins followed by substrate and [3H-SAM] addition and measured after 120 mins by liquid scintillation counting method.
DNA (cytosine-5)-methyltransferase 1, sequence (P26358 whole entry): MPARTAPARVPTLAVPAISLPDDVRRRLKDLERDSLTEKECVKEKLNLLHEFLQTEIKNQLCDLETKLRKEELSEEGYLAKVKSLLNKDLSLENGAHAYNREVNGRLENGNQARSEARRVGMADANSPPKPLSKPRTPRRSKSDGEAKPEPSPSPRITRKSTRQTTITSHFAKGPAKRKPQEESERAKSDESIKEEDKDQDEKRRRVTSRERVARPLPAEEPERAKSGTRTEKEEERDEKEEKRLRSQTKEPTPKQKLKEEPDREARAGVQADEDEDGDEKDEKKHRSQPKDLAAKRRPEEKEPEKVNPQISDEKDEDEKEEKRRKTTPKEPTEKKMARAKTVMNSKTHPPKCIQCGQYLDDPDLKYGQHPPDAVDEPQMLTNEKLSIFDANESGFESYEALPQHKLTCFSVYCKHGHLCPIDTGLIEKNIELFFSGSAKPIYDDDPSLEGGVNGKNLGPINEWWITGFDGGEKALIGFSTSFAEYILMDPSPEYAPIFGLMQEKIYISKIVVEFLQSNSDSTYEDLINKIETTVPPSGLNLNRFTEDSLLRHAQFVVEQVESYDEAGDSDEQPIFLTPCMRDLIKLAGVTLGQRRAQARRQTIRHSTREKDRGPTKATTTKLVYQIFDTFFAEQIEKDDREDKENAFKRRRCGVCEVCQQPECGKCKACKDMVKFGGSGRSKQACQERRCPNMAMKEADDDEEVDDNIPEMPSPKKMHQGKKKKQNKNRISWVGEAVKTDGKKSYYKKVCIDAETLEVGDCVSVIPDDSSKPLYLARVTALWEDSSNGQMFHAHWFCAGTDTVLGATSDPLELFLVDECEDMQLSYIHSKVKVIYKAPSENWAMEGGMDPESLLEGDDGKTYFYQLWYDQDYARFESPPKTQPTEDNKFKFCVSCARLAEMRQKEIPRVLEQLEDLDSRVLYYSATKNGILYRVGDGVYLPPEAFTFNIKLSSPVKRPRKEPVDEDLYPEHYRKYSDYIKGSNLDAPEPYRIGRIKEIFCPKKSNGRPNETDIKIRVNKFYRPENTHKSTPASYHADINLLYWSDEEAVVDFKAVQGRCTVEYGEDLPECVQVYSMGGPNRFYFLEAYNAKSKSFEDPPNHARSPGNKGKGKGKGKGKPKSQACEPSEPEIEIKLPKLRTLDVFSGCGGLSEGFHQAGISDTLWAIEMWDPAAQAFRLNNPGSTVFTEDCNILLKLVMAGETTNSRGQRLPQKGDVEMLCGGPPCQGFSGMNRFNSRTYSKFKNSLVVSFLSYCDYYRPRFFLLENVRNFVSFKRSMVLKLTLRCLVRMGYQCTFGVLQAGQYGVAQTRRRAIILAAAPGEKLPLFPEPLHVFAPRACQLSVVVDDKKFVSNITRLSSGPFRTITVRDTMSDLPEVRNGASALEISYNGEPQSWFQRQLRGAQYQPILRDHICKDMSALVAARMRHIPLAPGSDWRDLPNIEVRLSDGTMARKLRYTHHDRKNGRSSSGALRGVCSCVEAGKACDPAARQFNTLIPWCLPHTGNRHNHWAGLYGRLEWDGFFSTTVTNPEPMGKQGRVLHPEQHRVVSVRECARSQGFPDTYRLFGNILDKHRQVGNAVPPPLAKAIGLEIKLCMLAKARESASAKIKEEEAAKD
The target of experiment [14] is T2, Histone deacetylase 1. Put plainly: Inhibition of HDAC1 (unknown origin) using Ac-peptide as substrate in preincubated for 15 mins followed by substrate addition and measured after 60 mins by fluorescence method.
Experiment [15] addresses DNA (cytosine-5)-methyltransferase 3A (Homo sapiens, UniProt Q9Y6K1). The experiment is described as follows: Inhibition of DNMT3A (unknown origin) using biotinylated DNA oligonucleotides as substrate in presence of [3H-SAM] preincubated for 15 mins followed by substrate and [3H-SAM] addition and measured after 4 hrs by liquid scintillation counting method.
The target of experiment [16] is Class 1 histone deacetylase (Homo sapiens, UniProt Q13547+O15379+Q92769+Q9BY41). Put plainly: Inhibition of HDAC class1 (unknown origin). In kind it is protein assay.

T2 sequence (Q13547 whole entry): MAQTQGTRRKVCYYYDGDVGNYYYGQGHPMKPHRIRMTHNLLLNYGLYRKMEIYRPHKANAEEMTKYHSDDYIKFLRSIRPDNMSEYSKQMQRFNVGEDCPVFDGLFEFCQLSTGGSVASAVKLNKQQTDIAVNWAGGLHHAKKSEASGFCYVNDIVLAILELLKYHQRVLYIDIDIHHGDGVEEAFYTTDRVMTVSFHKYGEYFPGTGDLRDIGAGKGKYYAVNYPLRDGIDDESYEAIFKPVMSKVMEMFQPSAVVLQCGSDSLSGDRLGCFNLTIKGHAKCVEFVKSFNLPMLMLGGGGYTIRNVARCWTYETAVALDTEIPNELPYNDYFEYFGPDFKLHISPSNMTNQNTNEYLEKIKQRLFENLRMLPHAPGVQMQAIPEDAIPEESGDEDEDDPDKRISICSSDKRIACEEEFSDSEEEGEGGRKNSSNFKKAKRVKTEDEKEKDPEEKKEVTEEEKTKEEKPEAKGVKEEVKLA
DNA (cytosine-5)-methyltransferase 3A, sequence (Q9Y6K1 whole entry, looked up): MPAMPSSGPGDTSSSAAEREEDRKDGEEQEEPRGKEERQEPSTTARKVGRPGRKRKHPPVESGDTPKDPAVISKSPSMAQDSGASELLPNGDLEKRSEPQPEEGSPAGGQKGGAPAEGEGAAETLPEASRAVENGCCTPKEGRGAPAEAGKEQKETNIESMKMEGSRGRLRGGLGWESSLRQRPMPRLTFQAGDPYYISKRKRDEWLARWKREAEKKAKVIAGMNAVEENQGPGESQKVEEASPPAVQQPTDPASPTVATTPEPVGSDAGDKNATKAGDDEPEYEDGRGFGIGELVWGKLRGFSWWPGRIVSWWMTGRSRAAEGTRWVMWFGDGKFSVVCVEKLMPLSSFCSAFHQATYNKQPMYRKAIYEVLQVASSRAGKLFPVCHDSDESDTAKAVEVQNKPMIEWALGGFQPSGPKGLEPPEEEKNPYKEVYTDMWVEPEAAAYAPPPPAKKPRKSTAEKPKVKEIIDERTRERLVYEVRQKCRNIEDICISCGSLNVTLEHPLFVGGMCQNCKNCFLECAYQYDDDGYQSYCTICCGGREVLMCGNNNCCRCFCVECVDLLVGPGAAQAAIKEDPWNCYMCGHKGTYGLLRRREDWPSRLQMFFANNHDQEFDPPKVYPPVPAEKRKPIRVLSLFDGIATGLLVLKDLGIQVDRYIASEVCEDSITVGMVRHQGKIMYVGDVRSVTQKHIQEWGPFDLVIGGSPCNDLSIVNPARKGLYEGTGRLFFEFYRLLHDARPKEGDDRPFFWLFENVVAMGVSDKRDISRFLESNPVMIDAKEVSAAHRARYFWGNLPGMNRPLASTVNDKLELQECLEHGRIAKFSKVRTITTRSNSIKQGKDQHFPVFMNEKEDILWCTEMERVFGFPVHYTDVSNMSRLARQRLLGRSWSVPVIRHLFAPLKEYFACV

Regarding `CCC(CC)(c1ccc(OCC(=O)NO)cc1)c1ccc(OCC(O)C(C)(C)C)c(C)c1` (centres undefined), the IC50 in the experiment with 4T1 was 10000 nM.
The compound `Cc1noc(C)c1-c1ccc2c(c1)c(Cc1ccc(F)cc1)cn2CCCCCCC(=O)NO` gave an IC50 in the experiment with THP-1 of 15500 nM.
As for `COc1ccc2c(NC3CCN(Cc4ccccc4)CC3)nc(NCCNC(=O)CCCCC(=O)NO)nc2c1`, the IC50 worked out at 7140 nM in experiment [1] and 5700 nM against Histone deacetylase [2].
Turning to `Cc1sc2c(c1C)C(c1ccc(Cl)cc1)=N[C@@H](CC(=O)Nc1ccc(C(=O)NO)cc1)c1nnc(C)n1-2`, the values for the IC50 in the experiment with CAPAN-1 and on Histone deacetylase 1 [3] were 150 nM and 21 nM, respectively.
With `O=C(CCCCCNC(=O)c1cc(O)c2c(c1)C(=O)c1cccc(O)c1C2=O)NO`, the IC50 in the experiment with U-87 MG came out at 8000 nM; in the experiment on T98G, 5500 nM; with U-251 it was 7000 nM.
As to `O=C(CCCCCCn1cc(-c2ccc3ncnc(Nc4ccc(Br)cc4F)c3c2)nn1)NO`, the IC50 in [4] came to 10.3 nM; at Histone deacetylase 1 [5], 1.1 nM; with A549 [6], 710 nM; in [7], 4.3 nM.
Take `Cc1nc2ccc(-c3nc(Nc4ccc(NC(=O)CCCCCC(=O)NO)cc4)ncc3F)cc2n1C(C)C`: the half-maximal inhibitory concentration (IC50) in experiment [8] came out at 1.2 nM; against Histone deacetylase 1 [5], 17 nM; in [9] it was 126 nM.
Take `COc1cc(NC(=O)CCCCCCCCCCC(=O)NO)ccc1Nc1nccc(-c2cn(C)c3ccccc23)n1`: the IC50 in the experiment on KG-1 was 240 nM; against Histone deacetylase [10], 85 nM; in experiment [11], 5700 nM; in the experiment with MDA-MB-468, 230 nM; in the experiment on A549 [12] it was 2190 nM.
In the case of `O=C(NO)C1CCN(CC(O)COC(Cn2c3ccccc3c3ccccc32)Cn2c3ccccc3c3ccccc32)CC1` (centres undefined), the figures for the IC50 (in experiment [13]; at Histone deacetylase 1 [14]; in experiment [15]) were 2020 nM, 4160 nM and 930 nM, respectively.
`C#Cc1cccc(Nc2ncnc3cc(OCCOC)c(OCCOC)cc23)c1` [ERLOTINIB]: the IC50 with A549 [6] was 16800 nM.
Take `C=CC(=O)Nc1cc(Nc2nccc(-c3cn(C)c4ccccc34)n2)c(OC)cc1N(C)CCN(C)C` [OSIMERTINIB]: the IC50 worked out at 530 nM in the experiment with KG-1, 1300 nM in the experiment on MDA-MB-468 and 1970 nM in the experiment with A549 [12].
In experiment [16], `Cn1c(CCCCCCC(=O)NO)nc2cc(N(CCCl)CCCl)ccc21` [TINOSTAMUSTINE] returned an IC50 of 6 nM.
